# Results: patent US20100034867A1, “DRUG DELIVERY COATING FOR USE WITH A MEDICAL DEVICE AND METHODS OF TREATING VASCULAR INJURY” (ATRIUM MEDICAL CORPORATION, priority 2005, published 2010)
# Like-named read-outs stand apart in the source and are kept apart here.
# Legend:
# rabbit illiac arteries [1] = settings: in vivo, 28 days
# rabbit illiac arteries [2] = experiment: Methylprednisolone/Cilostazol/Paclitaxel/Taxus study: stents implanted in rabbit iliac arteries for 28 days, histomorphic and histopathologic analyses; settings: for EEL Area / IEL Area / Intimal Area / Lumen Area / Stenosis: ALPHA-3 coated Atrium Flyer stent, mean ± SD; for reduction in neointima (in words): coated stents
# rabbit illiac arteries [3] = settings: in vivo
# Description: The Atrium Flyer is compared with bare metal stents, the Atrium Flyer coated with ALPHA-3 without drugs, and Cypher™ drug eluting stent. Histomorphic and histopathologic analyses are then performed.
# rabbit's iliac vessel = experiment: Rapamycin drug eluting stents in rabbit iliac vessel (inflammation, overlapping stents); assay type: in vivo
# Source text: The inventors postulate, based on these animal study results, that one consequence of these types of drugs is retarded endothelial cell coverage, and that current drug eluting stents promote more chronic inflammation than would normally be present with a non drug eluting bare metal stent.
# rabbit iliacs = experiment: Local delivery of calcineurin inhibiting compounds after vascular injury in rabbit iliacs; assay type: in vivo
# Source text: Studies in rabbit iliacs following vascular injury conducted by and/or on behalf of the inventors show the benefits of using calcineurin inhibiting compounds like Tacrolimus, Cyclosporin A (CsA) and Cyclosporin derivatives, in small animals like the rat, and in rabbits. […] Such vascular injury and sirolimus medicated inflammation can be characterized as having excessive giant cell formation and esinophil propagation.
structure (smiles),measurement,setting,value
CC(=O)O[C@H]1C(=O)[C@@]2(C)[C@H]([C@H](OC(=O)c3ccccc3)[C@]3(O)C[C@H](OC(=O)[C@H](O)[C@@H](NC(=O)c4ccccc4)c4ccccc4)C(C)=C1C3(C)C)[C@]1(OC(C)=O)CO[C@@H]1C[C@@H]2O [Paclitaxel],Fibrin Score,rabbit illiac arteries [1],0
same,arterial healing compared with Taxus Express,rabbit illiac arteries [1],(greater) arterial healing at 28 days compared with Taxus™ Express
same,in-stent neointimal growth (in words),"rabbit illiac arteries [2]; Atrium stents, high dose",suppresses in-stent neointimal growth at 28 days similarly to the Taxus™ Express stent
CO[C@H]1C[C@@H]2CC[C@@H](C)[C@@](O)(O2)C(=O)C(=O)N2CCCC[C@H]2C(=O)O[C@H]([C@H](C)C[C@@H]2CC[C@@H](O)[C@H](OC)C2)CC(=O)[C@H](C)/C=C(\C)[C@@H](O)[C@@H](OC)C(=O)[C@H](C)C[C@H](C)/C=C/C=C/C=C/1C [Sirolimus],tolerability of the coated stent,rabbit illiac arteries [3],"well tolerated, producing no adverse reaction"
same,inflammatory response around the drug eluting stent,rabbit's iliac vessel; rabbit iliacs,presence of numerous giant cells and esinophils
same,inflammation induced by the overlapping drug coating,rabbit's iliac vessel; two separate drug eluting stents overlapping in rabbit iliac vessel,increases nearly two fold
same,arterial healing compared with Taxus Express,"rabbit illiac arteries [2]; Atrium stents, high dose",(greater) arterial healing at 28 days compared with Taxus™ Express
C[C@H]1C[C@@H]2[C@H]([C@@H](O)C[C@@]3(C)[C@H]2CC[C@]3(O)C(=O)CO)[C@@]2(C)C=CC(=O)C=C12 [Methylprednilsolone],EEL Area,rabbit illiac arteries [2]; high dose,5.50 ± 0.26 mm^2
same,IEL Area,rabbit illiac arteries [2]; high dose,5.25 ± 0.24 mm^2
same,Intimal Area,rabbit illiac arteries [2]; high dose,1.165 ± 0.231 mm^2
same,Lumen Area,rabbit illiac arteries [2]; high dose,4.08 ± 0.21 mm^2
same,Stenosis,rabbit illiac arteries [2]; high dose,22.2 ± 1.4%
same,EEL Area,rabbit illiac arteries [2]; low dose,5.90 ± 0.92 mm^2
same,IEL Area,rabbit illiac arteries [2]; low dose,5.62 ± 0.90 mm^2
same,Intimal Area,rabbit illiac arteries [2]; low dose,1.054 ± 0.923 mm^2
same,Lumen Area,rabbit illiac arteries [2]; low dose,4.42 ± 0.82 mm^2
same,Stenosis,rabbit illiac arteries [2]; low dose,21.5 ± 4.7%
same,EEL Area,rabbit illiac arteries [2]; mid-dose,5.68 ± 0.34 mm^2
same,IEL Area,rabbit illiac arteries [2]; mid-dose,5.40 ± 0.30 mm^2
same,Intimal Area,rabbit illiac arteries [2]; mid-dose,1.247 ± 0.136 mm^2
same,Lumen Area,rabbit illiac arteries [2]; mid-dose,4.16 ± 0.40 mm^2
same,Stenosis,rabbit illiac arteries [2]; mid-dose,23.1 ± 2.2%
same,reduction in neointima (in words),rabbit illiac arteries [2],No reduction in neointima
C=CC[C@@H]1/C=C(\C)C[C@H](C)C[C@H](OC)[C@H]2O[C@@](O)(C(=O)C(=O)N3CCCC[C@H]3C(=O)O[C@H](/C(C)=C/[C@@H]3CC[C@@H](O)[C@H](OC)C3)[C@H](C)[C@@H](O)CC1=O)[C@H](C)C[C@@H]2OC [Tacrolimus],inflammation following vascular injury,rabbit iliacs,effectively reduce inflammation following vascular injury
O=C1CCc2cc(OCCCCc3nnnn3C3CCCCC3)ccc2N1 [Cilostazol],Fibrin Score,rabbit illiac arteries [1],0
same,reduction in neointima (in words),rabbit illiac arteries [2],No reduction in neointima
